In one assay the target is T1, CCKA (Cavia porcellus, UniProt Q63931).
T1 construct: The pancreatata were homogenised in 40 ml ice-cold HEPES buffer using a polytron; from tissue; host or cells: pancreas membranes of male Dunkin Hartley guinea-pigs
T1 sequence (Q63931 1-430): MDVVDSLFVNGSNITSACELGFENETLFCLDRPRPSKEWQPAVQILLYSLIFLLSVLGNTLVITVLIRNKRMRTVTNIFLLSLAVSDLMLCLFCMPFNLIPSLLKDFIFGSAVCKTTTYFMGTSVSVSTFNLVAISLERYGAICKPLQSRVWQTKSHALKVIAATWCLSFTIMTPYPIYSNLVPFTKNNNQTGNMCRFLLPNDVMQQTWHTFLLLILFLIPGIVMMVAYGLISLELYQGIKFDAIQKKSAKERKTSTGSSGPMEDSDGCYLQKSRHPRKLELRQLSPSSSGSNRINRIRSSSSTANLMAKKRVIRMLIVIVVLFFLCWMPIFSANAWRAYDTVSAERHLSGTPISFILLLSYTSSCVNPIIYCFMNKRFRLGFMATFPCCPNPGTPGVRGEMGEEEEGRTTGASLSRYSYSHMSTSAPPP
The experiment in a line: CCKA radioligand binding assay in guinea-pig pancreas membranes ([125I]-CCK8(S)). To be noted: PD134,308 present, 150 minutes at 21±3°; for Ki: read-out: CCKA pKi (converted). The protocol:
The compounds of the examples were also tested in a CCKA as follows:
The pancreatata were removed from male guinea-pigs (200-300 g; Dunkin Hartley) and placed in ice-cold HEPES buffer (pH 7.2 @ 21 ±3). The pancreatata were homogenised in 40 ml ice-cold HEPES buffer using a polytron (Brinkmann, PT10, setting 10) 4×1 second. The homogenate was centrifuged at 39,800 g for 15 min at 4°. The supernatant was discarded and the pellet re-suspended using a Teflon-in-glass homogeniser in 20 volumes of fresh buffer and re-centrifuged as above.
The final pellet was re-suspended using a Teflon-in-glass homogeniser to a tissue concentration of 1 mg.ml^-1 (original wet weight), and filtered through 500 μm pore-size Nytex mesh.
The membranes (400 μl; containing 0.375 μM PD134,308) are incubated for 150 minutes at 21±3° in a final volume of 0.5 ml with HEPES buffer containing [^125 I]-CCK8 (S) (50 μl; […]) and competing compound. Total and non-specific binding of [^125 I]-CCK8 (S) are defined using 50 μl of buffer and 50 μl of 100 nM L-364,718 respectively. The assay is terminated by rapid filtration through pre-soaked Whatman GF/B filters using a Brandell Cell Harvester. The filters were washed (3×3 ml) with ice-cold 50 mM Tris HCl (pH 7.4 at 4°) and bound radioactivity is determined by counting (1 min) in a gamma counter.

The target of a further assay is T2, CCKB receptor (Mus musculus, UniProt P56481).
T2 construct: The cortex was dissected, weighed and homogenised in 40ml ice-cold buffer; tissue Charles River (supplier of the CD1 mice); host or cells: cerebral cortex membranes of male CD1 mice
T2 sequence (P56481 1-453): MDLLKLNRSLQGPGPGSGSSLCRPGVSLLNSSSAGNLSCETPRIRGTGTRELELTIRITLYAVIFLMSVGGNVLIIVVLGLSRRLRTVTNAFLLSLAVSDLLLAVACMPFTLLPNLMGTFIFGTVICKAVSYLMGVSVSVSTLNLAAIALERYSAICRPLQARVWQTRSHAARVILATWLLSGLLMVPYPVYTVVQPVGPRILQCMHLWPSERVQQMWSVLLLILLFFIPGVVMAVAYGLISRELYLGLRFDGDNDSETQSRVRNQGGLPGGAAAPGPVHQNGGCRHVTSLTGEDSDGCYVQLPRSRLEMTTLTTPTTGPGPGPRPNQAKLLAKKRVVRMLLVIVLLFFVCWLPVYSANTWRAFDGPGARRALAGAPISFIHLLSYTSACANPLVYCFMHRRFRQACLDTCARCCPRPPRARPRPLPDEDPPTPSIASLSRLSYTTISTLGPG
Description: CCKB receptor radioligand binding assay in mouse cortical membranes ([125I]-CCK8S). To be noted: [125I]-CCK8S 200 pM, 150 min at 21±3°; for Ki: read-out: CCKB pKi (converted). The procedure: The compounds of the examples were tested for binding at the CCKB receptor in mouse cortical membranes by means of a radioligand binding assay. The procedure was as follows:
The whole brains from male mice (CD1 22-25 g; Charles River) were removed and placed in ice-cold buffer (pH7.2 @ 21±3°) of the following composition (mM); 10 HEPES, 130 NaCl, 4.7 KCl, 5 MgCl2, 1 EDTA and containing 0.25g.^-1 bacitracin. The cortex was dissected, weighed and homogenised in 40ml ice-cold buffer using a Teflon-in-glass homogeniser. The homogenate was centrifuged at 39,800g for 20 min at 4°, the supernatant discarded and the pellet resuspended by homogenisation in fresh buffer. The homogenate was recentrifuged (39,800 g; 20 min @ 4°) and the final pellet was resuspended in HEPES buffer to give a tissue concentration of 2 mg.ml^-1 (original wet weight).
The membranes ([…]) were incubated for 150 min at 21±3° in a final volume of 0.5 ml with HEPES buffer containing [^125 I]-CCK8S (0.05 ml; 200 pM NEN 2200 Ci.mmol^-1) and competing compound. Total and non-specific binding of [^125 I]-CCK8S were defined using 0.05 ml of buffer and 0.05 ml of […] L-365,260, respectively. The assay was terminated by rapid filtration through pre-soaked Whatman GF/B filters using a Brandell Cell harvester. The filters were washed (3×3 ml) with ice-cold 50 mM Tris-HCl (pH7.4 @ 4° C.) and bound radioactivity determined by counting (1 min.) in a gamma-counter.

Bounds are passed on as bounds.

The values below come from patent US5795907A, “Gastin and CCK receptor ligands” (James Black Foundation Limited, priority 1994, dated 1998).

On to `O=C(O)c1cc(NC(=O)[C@H](Cc2ccccc2)NC(=O)c2cc3[nH]c4ccccc4c3cc2C(=O)NCC23CC4CC(CC(C4)C2)C3)cc(C(=O)O)c1` [Example 52, 2-(1S-(3,5-dicarboxyphenylaminocarbonyl)-2-phenylethylaminocarbonyl)-3-(1-adamantanemethylaminocarbonyl)-carbazole], for which the Ki on CCKA is 1260 nM; at CCKB receptor, 63.1 nM.
On to `O=C(NCC12CC3CC(CC(C3)C1)C2)c1cc2nc[nH]c2cc1C(=O)N[C@@H](Cc1ccccc1)C(=O)Nc1ccc(F)cc1` [Example 68, 5-(1S-(4-fluorophenylaminocarbonyl)-2-phenylethylaminocarbonyl)-6-(1-adamantanemethylaminocarbonyl)-benzimidazole], for which the Ki at CCKA and on CCKB receptor was 1260 nM throughout.
As for `O=C(NCC12CC3CC(CC(C3)C1)C2)c1cc2nc[nH]c2cc1C(=O)N[C@@H](Cc1ccccc1F)C(=O)Nc1cc(-c2nn[nH]n2)cc(-c2nn[nH]n2)c1` [Example 84, 5-(1S-(3,5-ditetrazolylphenylaminocarbonyl)-2-(2-fluorophenyl)ethylaminocarbonyl)-6-(1-adamantanemethylaminocarbonyl)-benzimidazole], the results for the Ki at CCKA and at CCKB receptor were 631 nM and 2.51 nM, respectively.
Turning to `O=C(NCC12CC3CC(CC(C3)C1)C2)c1cc2[nH]ccc2cc1C(=O)N[C@@H](Cc1ccccc1)C(=O)Nc1cc(NC(=O)C(F)(F)F)cc(NC(=O)C(F)(F)F)c1` [Example 94, 5-(1S-(3,5-di-trifluoromethylcarbonylaminophenylamino-carbonyl)-2-phenylethylaminocarbonyl)-6-(1-adamantanemethylaminocarbonyl)-indole], the “CCKA pKi” value at CCKA is 5.0. The “CCKB pKi” value on CCKB receptor turned out to be 6.7.
Take `NS(=O)(=O)c1cc(NC(=O)[C@H](Cc2ccccc2)NC(=O)c2cc3cc[nH]c3cc2C(=O)NCC23CC4CC(CC(C4)C2)C3)cc(S(N)(=O)=O)c1` [Example 96, 5-(1S-(3,5-di-aminosulphonylphenylaminocarbonyl)-2-phenylethylaminocarbonyl)-6-(1-adamantanemethylaminocarbonyl)-indole]: at CCKA, the “CCKA pKi” value is 5.7. The “CCKB pKi” value on CCKB receptor is 6.3.
Regarding `O=C(NCC12CC3CC(CC(C3)C1)C2)c1cc2[nH]ccc2cc1C(=O)N[C@@H](Cc1ccccc1F)C(=O)Nc1cc(-c2nn[nH]n2)cc(-c2nn[nH]n2)c1` [Example 97, 5-(1S-(3,5-ditetrazolylphenylaminocarbonyl)-2-(2-fluorophenyl)ethylaminocarbonyl)-6-(1-adamantanemethylaminocarbonyl)-indole], the figures for the Ki on CCKA and at CCKB receptor were 501 nM and 0.794 nM, respectively.
With `O=C(NCC12CC3CC(CC(C3)C1)C2)c1cc2cc[nH]c2cc1C(=O)N[C@@H](Cc1ccccc1F)C(=O)Nc1cc(-c2nn[nH]n2)cc(-c2nn[nH]n2)c1` [Example 98, 6-(1S-(3,5-ditetrazolylphenylaminocarbonyl)-2-(2-fluorophenyl)ethylaminocarbonyl)-5-(1-adamantanemethylaminocarbonyl)-indole], the Ki on CCKA was 200 nM; at CCKB receptor, 3.98 nM.
For `O=C(NCC12CC3CC(CC(C3)C1)C2)c1cc2[nH]ccc2cc1C(=O)N[C@@H](Cc1ccccc1)C(=O)Nc1cccc(S(=O)(=O)NC(=O)C(F)(F)F)c1` [Example 99, 5-(1S-(3-trifluoroacetylaminosulphonylphenylaminocarbonyl)-2-phenylethylaminocarbonyl)-6-(1-adamantanemethylaminocarbonyl)-indole], on CCKA, the “CCKA pKi” value is 5.4. Also, at CCKB receptor, the “CCKB pKi” value turned out to be 8.4.
In the case of `O=C(NCC12CC3CC(CC(C3)C1)C2)c1cc2cc[nH]c2cc1C(=O)N[C@@H](Cc1ccccc1)C(=O)Nc1cccc(-c2nn[nH]n2)c1` [Example 101, 6-(1S-(3-tetrazolylphenylaminocarbonyl)-2-phenylethylaminocarbonyl)-5-(1-adamantanemethylaminocarbonyl)-indole], the figures for the Ki at CCKA and at CCKB receptor were 251 nM and 39.8 nM, respectively.
For `O=C(NCC12CC3CC(CC(C3)C1)C2)c1cc2[nH]ccc2cc1C(=O)N[C@@H](Cc1ccccc1)C(=O)Nc1cccc(NS(=O)(=O)C(F)(F)F)c1` [Example 102, 5-(1S-(3-trifluoromethylsulphonylaminophenylaminocarbonyl)-2-phenylethylaminocarbonyl)-6-(1-adamantanemethylaminocarbonyl)-indole], the “CCKA pKi” value on CCKA is on record as 5.9. Also, the “CCKB pKi” value on CCKB receptor was found to be 7.4.
Turning to `Cc1nc2cc(C(=O)NCC34CC5CC(CC(C5)C3)C4)c(C(=O)N[C@@H](Cc3ccccc3)C(=O)Nc3cc(C(=O)O)cc(C(=O)O)c3)cc2[nH]1` [Example 111, 5-(1S-(3,5-dicarboxyphenylaminocarbonyl)-2-phenylethylaminocarbonyl)-6-(1-adamantanemethylaminocarbonyl)-2-methylbenzimidazole], the results for the Ki on CCKA and at CCKB receptor were greater than 10000 nM and 1580 nM, respectively.
Take `CCCCc1nc2cc(C(=O)NCC34CC5CC(CC(C5)C3)C4)c(C(=O)N[C@@H](Cc3ccccc3)C(=O)Nc3cc(C(=O)O)cc(C(=O)O)c3)cc2[nH]1` [Example 114, 5-(1S-(3,5-dicarboxyphenylaminocarbonyl)-2-phenylethylaminocarbonyl)-6-(1-adamantanemethylaminocarbonyl)-2-n-butylbenzimidazole]: the values for the Ki at CCKA and at CCKB receptor were 3160 nM and 1000 nM, respectively.
As for `NC(=O)c1cc(NC(=O)[C@H](Cc2ccccc2)NC(=O)c2cc3[nH]cnc3cc2C(=O)NCC23CC4CC(CC(C4)C2)C3)cc(C(N)=O)c1` [Example 117, 5-(1S-(3,5-diaminocarbonylphenylaminocarbonyl)-2-phenylethylaminocarbonyl)-6-(1-adamantanemethylaminocarbonyl)-benzimidazole], the Ki was 1580 nM at CCKA and 794 nM on CCKB receptor.
Consider `O=C(NCC12CC3CC(CC(C3)C1)C2)c1cc2nc[nH]c2cc1C(=O)N[C@@H](Cc1ccccc1)C(=O)Nc1cc(CO)cc(CO)c1` [Example 119, 5-(1S-(3,5-dihydroxymethylphenylaminocarbonyl)-2-phenylethylaminocarbonyl)-6-(1-adamantanemethylaminocarbonyl)-benzimidazole], for which, on CCKA, the “CCKA pKi” value was 5.6. Besides, the “CCKB pKi” value on CCKB receptor was determined as 6.2.
